In assay [1] the test system is ApoA-I mRNA. Put plainly: ApoA-I mRNA quantitation in HepG2 cells (real-time PCR). The format is cell-based. Set-up: key: Active: An active compound is one that causes a >15% increase in ApoA-I mRNA at a concentration less than or equal to 100 uM. The following applies: concentration less than or equal to 100 uM, fold induction relative to DMSO control. The method, boiled down:
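HepG2 cells were lysed after compound treatment and mRNA captured on oligo plates, then quantified by one-step real-time RT-PCR with primer-probe mixes. Ct values gave fold induction relative to the matching DMSO control. Active means >15% increase in ApoA-I mRNA at ≤100 uM.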

Assay [2] relates to coronary atherosclerosis. As to conditions: 2 years; pravastatin 40 mg daily, atorvastatin 80 mg daily; cited from earlier work.
Assay [3] concerns coronary atherosclerosis. The following applies: 2 years; rosuvastatin 40 mg daily, atorvastatin 80 mg daily; cited from earlier work.
In assay [4] the test system is ABCA1. The following applies: cited from earlier work.
Assay [5] concerns coronary atherosclerosis. As to conditions: cited from earlier work.

Like-named read-outs stand apart in the source and are kept apart here.

`COc1ccc(C(=O)NCCOc2c(C)cc(-c3nc4cc(OC)cc(OC)c4c(=O)[nH]3)cc2C)cc1` [N-(2-(4-(5,7-dimethoxy-4-oxo-3,4-dihydroquinazolin-2-yl)-2,6-dimethylphenoxy)ethyl)-4-methoxybenzamide]: the “Effect on ApoA-I mRNA levels” value in assay [1] is recorded as “Active”. On the same count and under the same terms, in the case of `COc1ccc(S(=O)(=O)NCCOc2c(C)cc(-c3nc4cc(OC)cc(OC)c4c(=O)[nH]3)cc2C)cc1` [N-(2-(4-(5,7-dimethoxy-4-oxo-3,4-dihydroquinazolin-2-yl)-2,6-dimethylphenoxy)ethyl)-4-methoxybenzenesulfonamide] it was “Active”; in that of `COc1cc(OC)c2c(=O)[nH]c(-c3cc(C)c(OCCNS(=O)(=O)c4ccc(C)cc4)c(C)c3)nc2c1` [N-(2-(4-(5,7-dimethoxy-4-oxo-3,4-dihydroquinazolin-2-yl)-2,6-dimethylphenoxy)ethyl)-4-methylbenzenesulfonamide], “Active”; in that of `COc1cc(OC)c2c(=O)[nH]c(-c3cc(C)c(OCCNC(C)=O)c(C)c3)nc2c1` [N-(2-(4-(5,7-dimethoxy-4-oxo-3,4-dihydroquinazolin-2-yl)-2,6-dimethylphenoxy)ethyl)acetamide], “Active”. Still for that read-out and setting: in the case of `COc1cc(OC)c2c(=O)[nH]c(-c3cc(C)c(OCCNC(=O)c4ccccc4)c(C)c3)nc2c1` [N-(2-(4-(5,7-dimethoxy-4-oxo-3,4-dihydroquinazolin-2-yl)-2,6-dimethylphenoxy)ethyl)benzamide] it was “Active”; in that of `COc1cc(OC)c2c(=O)[nH]c(-c3cc(C)c(OCCNS(=O)(=O)c4ccccc4)c(C)c3)nc2c1` [N-(2-(4-(5,7-dimethoxy-4-oxo-3,4-dihydroquinazolin-2-yl)-2,6-dimethylphenoxy)ethyl)benzenesulfonamide], “Active”; in that of `COc1cc(OC)c2c(=O)[nH]c(-c3cc(C)c(OCCNC(=O)C(C)C)c(C)c3)nc2c1` [N-(2-(4-(5,7-dimethoxy-4-oxo-3,4-dihydroquinazolin-2-yl)-2,6-dimethylphenoxy)ethyl)isobutyramide], “Active”. The same measure, in the same setting: under `COc1cc(OC)c2c(=O)[nH]c(-c3cc(C)c(OCCNS(C)(=O)=O)c(C)c3)nc2c1` [N-(2-(4-(5,7-dimethoxy-4-oxo-3,4-dihydroquinazolin-2-yl)-2,6-dimethylphenoxy)ethyl)methanesulfonamide] stands “Active”; under `CC(=O)Nc1ccc2nc(-c3cc(C)c(O)c(C)c3)[nH]c(=O)c2c1` [N-(2-(4-hydroxy-3,5-dimethylphenyl)-4-oxo-3,4-dihydroquinazolin-6-yl)acetamide], “Active”.

As for `COc1cc(OC)c2c(=O)[nH]c(-c3cc(C)c(NC(=O)CO)c(C)c3)nc2c1` [N-(4-(5,7-dimethoxy-4-oxo-3,4-dihydroquinazolin-2-yl)-2,6-dimethylphenyl)-2-hydroxyacetamide], in assay [1], the “Effect on ApoA-I mRNA levels” value was “Active”. Still for that read-out and setting: under `COc1cc(OC)c2c(=O)[nH]c(-c3ccc(NC(=O)CO)cc3)nc2c1` [N-(4-(5,7-dimethoxy-4-oxo-3,4-dihydroquinazolin-2-yl)phenyl)-2-hydroxyacetamide] stands “Active”. In the case of `CC(C)c1c(C(=O)Nc2ccccc2)c(-c2ccccc2)c(-c2ccc(F)cc2)n1CC[C@@H](O)C[C@@H](O)CC(=O)O` [atorvastatin], the “median change in PAV” value is reported as “+0.2%” in assay [2] and −0.99% in assay [3]. Also, the “effect on expression of ABCA1” value in assay [4] is listed as “inhibit ABCA1 expression”. In the case of `O=C(O)C[C@H](O)C[C@H](O)/C=C/c1c(C2CC2)nc2ccccc2c1-c1ccc(F)cc1` [pitavastatin, (3R,5S,6E)-7-[2-cyclopropyl-4-(4-fluorophenyl)quinolin-3-yl]-3,5-dihydroxyhept-6-enoic acid], the “effect on expression of ABCA1” value in assay [4] is recorded as “increase expression of ABCA1”. As to `CC(C)c1nc(N(C)S(C)(=O)=O)nc(-c2ccc(F)cc2)c1/C=C/[C@@H](O)C[C@@H](O)CC(=O)O` [rosuvastatin, (3R,5S,6E)-7-[4-(4-fluorophenyl)-2-(N-methylmethanesulfonamido)-6-(propan-2-yl)pyrimidin-5-yl]-3,5-dihydroxyhept-6-enoic acid], the “median change in PAV” value in assay [3] is −1.22%. Moreover, the “median change PAV” value in assay [5] (2 years, rosuvastatin 40 mg daily, overall) is −0.79%. The “median decrease in PAV from baseline” value in assay [5] (2 years, rosuvastatin 40 mg daily, subgroup with average HDL-C during treatment less than 40 mg/dL) was −1.3%. Also, in assay [5] (FIG. 8, 40 mg of rosuvastatin without RVX-208, after 104 weeks), the PAV decrease is recorded as 1.30%. The “effect on expression of ABCA1” value in assay [4] is given as “increase expression of ABCA1”.
